Columns and labels:
[1] = test system: T84; assay: Inhibition of calcium-mediated chloride secretion in the intestinal epithelial cell line T84 by measuring short circuit current at 200 uM concentration; Ineffective; assay type: functional, cell-based; conditions: Homo sapiens
[2] = test system: T84; assay: Inhibition of calcium-mediated chloride secretion in the intestinal epithelial cell line T84 by measuring short circuit current at 400 uM concentration; Maximum; assay type: functional, cell-based; conditions: Homo sapiens

In the case of `CCCCO[C@@H]1C[C@H](OP(=O)(OCOC(C)=O)OCOC(C)=O)[C@@H](OP(=O)(OCOC(C)=O)OCOC(C)=O)[C@H](OP(=O)(OCOC(C)=O)OCOC(C)=O)[C@H]1OP(=O)(OCOC(C)=O)OCOC(C)=O` (racemic), the inhibition [1] is reported as “Ineffective” and the inhibition [2] is reported as “Ineffective”.

From ChEMBL document CHEMBL1131097, “2-Deoxy derivative is a partial agonist of the intracellular messenger inositol 3,4,5,6-tetrakisphosphate in the epithelial cell line T84” (J Med Chem, 1998)
